From patent publication US20040033587A1, “Method and device for detecting Biologically Active Substances” (Bayer Aktiengesellschaft, priority 2002, published 2004)

System: Vibrio fischeri
Test: increase in luminescence of Vibrio fischeri culture with addition of aspartic acid to the cultivation medium
Format: cell-based
Settings: 12.5 mg of aspartic acid added to cultivation medium; aspartic acid-free medium starts only at a later time
Description: In two cultivation experiments carried out in parallel, bacterial suspensions were prepared according to the method described below. In order to test the influence of aspartic acid, 12.5 mg of aspartic acid had been added to the cultivation medium of one of the two reaction mixtures. The effect of the addition of aspartic acid was detected by taking luminescence images using the Nightowl camera system from EG&G Berthold and is depicted in FIGS. 2a and 2b.
A tissue culture flask (e.g. Falcon Cat. No. 353110) which contains 125 ml of cultivation medium and a magnetic stirring bar was inoculated with bacteria from a Vibrio fischeri strain stock. The inoculated cultivation solution was then incubated with slow stirring on a magnetic stirrer at room temperature.

N[C@@H](CC(=O)O)C(=O)O [aspartic acid]
incubation time after which the culture showed a distinct luminescence: ≤ 18 h
